Experimental data published in patent US9963462B2 (priority 2015, dated 2018).
pIC50: −log10 of the molar value.

Assays:
[1] = biological target: SNAP-hSPR (sepiapterin reductase, SPR) (Homo sapiens, UniProt P35270); test: biochemical; type: binding; details: terbium labelled SNAP-hSPR / SSZ labelled SNAP-EGFP; read-out: hTR-FRET IC50
[2] = test system: BH4 levels in SK-N-BE (2) cells; test: SKN-N-BE (2) cellular assay, BH4 levels by LC-MS; type: cell-based; details: Homo sapiens, SKNBE2, read-out: SK-N-BE(2) IC50, SK-N-BE (2) cells, BH4 levels by LC-MS

SNAP-hSPR (sepiapterin reductase, SPR), sequence (P35270 whole entry): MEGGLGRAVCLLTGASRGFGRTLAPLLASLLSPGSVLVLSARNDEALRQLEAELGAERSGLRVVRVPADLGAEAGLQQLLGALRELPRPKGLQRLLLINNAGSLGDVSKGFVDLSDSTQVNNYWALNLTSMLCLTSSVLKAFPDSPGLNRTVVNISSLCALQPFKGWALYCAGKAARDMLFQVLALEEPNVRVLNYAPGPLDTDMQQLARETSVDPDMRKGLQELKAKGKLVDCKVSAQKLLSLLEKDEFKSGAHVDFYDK

SMILES | pIC50 [1] | pIC50 [2]
COC(=O)c1cnn(-c2nc(C)cc(=O)[nH]2)c1C [Q-0310] | 7.22 | 4.92
Cc1cc(=O)[nH]c(-n2ncc(CN3CCc4ccccc4C3)c2C)n1 [Q-0311] | 7.40 | 4.96
Cc1cc(=O)[nH]c(-n2cc(C(=O)N3CCc4ccccc4C3)nn2)n1 [Q-0312, 6-methyl-2-[4-(1,2,3,4-tetrahydroisoquinoline-2-carbonyl)-1H-1,2,3-triazol-1-yl]-3,4-dihydropyrimidin-4-one] | 7.70 | 5.00
Cc1cc(=O)[nH]c(-n2ncc(C(=O)N3CCc4ccccc4C3C)c2C)n1 (centres unmarked) [Q-0313] | 8.22 | 5.82
Cc1cc(=O)[nH]c(-n2cc(C(=O)N3CCc4ccccc4C3)cn2)n1 [Q-0314] | 7.70 | 5.24
Cc1cc(=O)[nH]c(-n2ncc(C(=O)N(C)C)c2C)n1 [Q-0317] | 7.22 | 4.70
Cc1cc(=O)[nH]c(-n2ncc(C(=O)N(C)Cc3ccccc3)c2C)n1 [Q-0318] | 8.22 | 5.68
Cc1cc(=O)[nH]c(-n2ncc(C(=O)N3CCc4ccccc4C3)c2C(C)C)n1 [Q-0319] | 8.00 | 5.66
Cc1c(C(=O)N2CCc3ccccc3C2)cnn1-c1nc2ccccc2c(=O)[nH]1 [Q-0323] | 6.52 | 4.46
Cc1cc(=O)[nH]c(-n2ncc(C(=O)N3CCc4ccc(S(=O)(=O)N5CCOCC5)cc4C3)c2C)n1 [Q-0327] | 8.15 | 4.92
Cc1cc(=O)[nH]c(-n2ncc(C(=O)N3CCc4cn[nH]c4C3)c2C)n1 [Q-0328] | 8.00 | 4.28
Cc1cc(=O)[nH]c(-n2ncc(C(=O)N3C4CCC3CC4)c2C)n1 [Q-0329] | 8.00 | 5.46
Cc1cc(=O)[nH]c(-n2ncc(C(=O)NC3CCCC3)c2C(C)C)n1 [Q-0330] | 7.70 | 5.21
Cc1cc(=O)[nH]c(-n2ncc(C(=O)NC3CCCC3)c2C(F)F)n1 [Q-0331] | 7.10 | 4.82
Cc1cc(=O)[nH]c(-n2ncc(C(=O)N3CCc4ccccc4C3)c2C(F)F)n1 [Q-0332] | 8.00 | 5.60
Cc1cc(=O)[nH]c(-n2ccc(C(=O)NC3CCCC3)n2)n1 [Q-0333] | 7.70 | 4.92
Cc1cc(=O)[nH]c(-n2ncc(C(=O)NC3CCCC3)c2C(F)(F)F)n1 [Q-0334] | 7.10 | 4.31
Cc1cc(=O)[nH]c(-n2ncc(C(=O)N3CCC(C)(C)C3)c2C)n1 [Q-0341] | 8.30 | 5.74
Cc1cc(=O)[nH]c(-n2ncc(C(=O)N3CCc4ccccc4C3)c2C(F)(F)F)n1 [Q-0342] | 8.00 | 5.62
Cc1cc(=O)[nH]c(-n2ccc(C(=O)N3CCOCC3)n2)n1 [Q-0343] | 7.00 | 4.40
Cc1cc(=O)[nH]c(-n2ncc(C(=O)NCc3cnccn3)c2C)n1 [Q-0344] | 7.15 | 4.64
Cc1cc(=O)[nH]c(-n2ncc(C(=O)N3CCc4[nH]ncc4C3)c2C)n1 [Q-0345] | 8.00 | 4.11
CCCN(C)C(=O)c1cnn(-c2nc(C)cc(=O)[nH]2)c1C [Q-0346] | 8.10 | 5.28
CCCN(CC)C(=O)c1cnn(-c2nc(C)cc(=O)[nH]2)c1C [Q-0347] | 8.00 | 5.12

SMILES | pIC50 [1] | pIC50 [2]
CCN(CC)C(=O)c1cnn(-c2nc(C)cc(=O)[nH]2)c1C [Q-0348] | 8.00 | 5.19
Cc1cc(=O)[nH]c(-n2ncc(C(=O)N3CCOCC3)c2C(F)F)n1 [Q-0349] | 7.52 | 4.24
CCN(C)C(=O)c1cnn(-c2nc(C)cc(=O)[nH]2)c1C [Q-0350] | 7.70 | 4.96
CCCN(CCC)C(=O)c1cnn(-c2nc(C)cc(=O)[nH]2)c1C [Q-0351] | 8.00 | 5.34
Cc1cc(=O)[nH]c(-n2ncc(C(=O)N3CCOCC3)c2C)n1 [Q-0352] | 7.70 | 4.89
Cc1cc(=O)[nH]c(-n2ncc(C(=O)N3CCc4ccccc4C3)c2CC(C)C)n1 [Q-0353] | 7.30 | 4.82
Cc1cc(=O)[nH]c(-n2ncc(C(=O)N3CCc4ccccc4C3)c2Cc2ccccc2)n1 [Q-0358] | 7.00 | 4.66
Cc1cc(=O)[nH]c(-n2ncc(C(=O)N3CCC(C(F)(F)F)CC3)c2C)n1 [Q-0359] | 8.52 | 5.96
Cc1cc(=O)[nH]c(-n2ncc(C(=O)NC3CCCc4ccccc43)c2C)n1 (centres unmarked) [Q-0362] | 7.70 | 5.54
Cc1cc(=O)[nH]c(-n2ncc(C(=O)NC3CCc4ccccc43)c2C)n1 (centres unmarked) [Q-0363] | 7.52 | 5.24
Cc1cc(=O)[nH]c(-n2ncc(C(=O)NCC(F)(F)C(F)(F)F)c2C)n1 [Q-0364] | 7.15 | 4.80
Cc1cc(=O)[nH]c(-n2nc(C(=O)N3CCc4ccccc4C3)cc2C)n1 [Q-0365, 6-methyl-2-[5-methyl-3-(1,2,3,4-tetrahydroisoquinoline-2-carbonyl)-1H-pyrazol-1-yl]-3,4-dihydropyrimidin-4-one] | 7.30 | 4.92
Cc1cc(=O)[nH]c(-n2cc(C)c(C(=O)N3CCc4ccccc4C3)n2)n1 [Q-0366] | 6.40 | 3.89
Cc1cc(=O)[nH]c(-n2ncc(C(=O)NCCC(F)(F)F)c2C)n1 [Q-0367] | 7.15 | 4.96
Cc1cc(=O)[nH]c(-n2ncc(C(=O)N3CCCC(C(F)(F)F)C3)c2C)n1 (centres unmarked) [Q-0368] | 8.00 | 5.54
Cc1cc(=O)[nH]c(-n2ncc(C(=O)N3CCN(c4ccccn4)CC3)c2Cc2ccccc2)n1 [Q-0369] | 6.70 | 4.55
Cc1cc(=O)[nH]c(-n2ncc(C(=O)NC3CCCC3)c2Cc2ccccc2)n1 [Q-0370] | 7.00 | 4.66
Cc1cc(=O)[nH]c(-n2ncc(C(=O)N3CCC(C)(C)C3)c2CC(C)C)n1 [Q-0371] | 7.15 | 4.85
Cc1cc(=O)[nH]c(-n2ncc(C(=O)N(C)C3CCCc4ccccc43)c2C)n1 (centres unmarked) [Q-0373] | 7.70 | 5.82
Cc1cc(=O)[nH]c(-n2ncc(C(=O)N(C)C3CCc4ccccc43)c2C)n1 (centres unmarked) [Q-0374] | 8.05 | 5.92
Cc1cc(=O)[nH]c(-n2nc(C)c(C(=O)N3CCc4ccccc4C3)c2C)n1 [Q-0375] | 7.70 | 5.60
Cc1cc(=O)[nH]c(-n2ccc(C(=O)N3CCc4ccccc43)n2)n1 [Q-0376] | 7.52 | 5.09
Cc1cc(=O)[nH]c(-n2ccc(C(=O)N3c4ccccc4CC3C)n2)n1 (centres unmarked) [Q-0377] | 7.40 | 5.20
Cc1c(C(=O)N2CCC(C)(C)C2)cnn1-c1nc2ccsc2c(=O)[nH]1 [Q-0380] | 8.15 | 5.57

SMILES | pIC50 [1] | pIC50 [2]
Cc1nc(-n2ncc(C(=O)N3CCc4ccccc4C3)c2C)[nH]c(=O)c1C [Q-0381] | 8.00 | 5.68
Cc1c(C(=O)N2CCc3ccccc3C2)cnn1-c1nc2sccc2c(=O)[nH]1 [Q-0382] | 8.52 | 7.00
Cc1c(C(=O)N2CCc3ccccc3C2)cnn1-c1nc(C(C)(C)C)cc(=O)[nH]1 [Q-0383] | 6.52 | 4.16
Cc1cc(=O)[nH]c(-n2ncc(C(=O)NCC3(c4ccccc4)CCCC3)c2C)n1 [Q-0385] | 7.52 | 5.42
Cc1c(C(=O)N2CCc3ccccc3C2)cnn1-c1ncc(Cl)c(=O)[nH]1 [Q-0387] | 8.00 | 5.43
O=C(c1ccn(-c2nc3ccsc3c(=O)[nH]2)n1)N1CCc2ccccc2C1 [Q-0388] | 7.00 | 4.44
CC1(C)CCN(C(=O)c2ccn(-c3nc4ccsc4c(=O)[nH]3)n2)C1 [Q-0389] | 7.70 | 5.25
O=C(c1ccn(-c2nc3ccsc3c(=O)[nH]2)n1)N1CCC(C(F)(F)F)CC1 [Q-0390] | 7.70 | 4.92
Cc1c(C(=O)N2CCc3ccccc3C2)cnn1-c1nc(C(F)(F)F)cc(=O)[nH]1 [Q-0393] | 8.22 | 6.10
Cc1c(C(=O)N2CCCc3ccccc32)cnn1-c1nc2ccsc2c(=O)[nH]1 [Q-0395] | 7.70 | 6.30
Cc1c(C(=O)N2CCc3ccccc3C2)cnn1-c1nc2c(c(=O)[nH]1)CCC2 [Q-0396] | 8.70 | 7.21
Cc1c(C(=O)N2CCCC2(C)C)cnn1-c1nc2ccsc2c(=O)[nH]1 [Q-0397] | 7.70 | 5.64
Cc1c(C(=O)N2CCC3(CCCC3)CC2)cnn1-c1nc2ccsc2c(=O)[nH]1 [Q-0398] | 8.00 | 7.14
Cc1c(C(=O)N2CCC(C(C)(C)C)CC2)cnn1-c1nc2ccsc2c(=O)[nH]1 [Q-0399] | 8.52 | 7.62
Cc1c(C(=O)N2CCC(C)CC2C)cnn1-c1nc2ccsc2c(=O)[nH]1 (centres unmarked) [Q-0400] | 8.40 | 6.70
Cc1c(C(=O)N2c3ccccc3CC2C)cnn1-c1nc2ccsc2c(=O)[nH]1 (centres unmarked) [Q-0401] | 7.52 | 6.40
Cc1c(C(=O)N2CC[C@H]3CCCC[C@H]3C2)cnn1-c1nc2ccsc2c(=O)[nH]1 [Q-0402] | 8.00 | 7.39
Cc1c(C(=O)N2CCC(C(F)(F)F)C2)cnn1-c1nc2ccsc2c(=O)[nH]1 (centres unmarked) [Q-0403] | 8.05 | 5.96
Cc1nc(-n2ncc(C(=O)N3c4ccccc4CC3C)c2C)[nH]c(=O)c1C (centres unmarked) [Q-0404] | 7.40 | 5.37
Cc1c(C(=O)N2CC(C)(C)OC(C)(C)C2)cnn1-c1nc2ccsc2c(=O)[nH]1 [Q-0405] | 8.00 | 5.82
Cc1c(C(=O)N2CC(C(F)(F)F)CC(C(F)(F)F)C2)cnn1-c1nc2ccsc2c(=O)[nH]1 (centres unmarked) [Q-0406] | 7.30 | 5.70
Cc1c(C(=O)N2CC[C@H]3CCCC[C@@H]3C2)cnn1-c1nc2ccsc2c(=O)[nH]1 [Q-0408] | 8.00 | 7.12
